Experimental data: article PMC10002422, “Aggregation Limiting Cell-Penetrating Peptides Derived from Protein Signal Sequences” (International Journal of Molecular Sciences, 2023)
Where no end group is shown, it is not given here.

What was measured:
[1] = tested on: Aβ1–42-GFP fusion protein expressed in U87 cells; assay: Reduction in expressed Aβ1–42-GFP aggregation, flow cytometry; type: cell-based, human; settings: control inhibitor

In the case of `O=S1(=O)OC(c2ccc(O)cc2)(c2ccc(O)cc2)c2ccccc21` [phenol red], the “green signal in Aβ42–EGFP expressing cells after known Aβ inhibitor” value [1] is reported as “significantly increased the green signal”.
With “MANLGYWLLALFVTMWTDVGLCKKRPKP-NH2 [PrP1–28]” the “peptide concentration at which cell viability is reduced (MTS) in serum free media” value (U87 cells) was 2.5 µM and the “reduction in the viability of cells (MTS) in serum free media” value (U87 cells) was “over 20%”.
“MLRTKDLIWTLFFLGTAVSKKRPKP-NH2 [NCAM1_1–19PrP23–28]” was tested, and the “peptide concentration at which cell viability is reduced (MTS) in serum free media” value (U87 cells) was 20 µM.
